ChEMBL document CHEMBL4020811, “JAK2 JH2 Fluorescence Polarization Assay and Crystal Structures for Complexes with Three Small Molecules” (ACS Med Chem Lett, 2017)

Biological target: Tyrosine-protein kinase JAK2 (Homo sapiens, UniProt O60674)
Assay: Binding affinity to wild type JAK2 JH2 domain (unknown origin) by competitive fluorescence polarization assay

Sequence of Tyrosine-protein kinase JAK2 (O60674 whole entry, the tested form may be a part): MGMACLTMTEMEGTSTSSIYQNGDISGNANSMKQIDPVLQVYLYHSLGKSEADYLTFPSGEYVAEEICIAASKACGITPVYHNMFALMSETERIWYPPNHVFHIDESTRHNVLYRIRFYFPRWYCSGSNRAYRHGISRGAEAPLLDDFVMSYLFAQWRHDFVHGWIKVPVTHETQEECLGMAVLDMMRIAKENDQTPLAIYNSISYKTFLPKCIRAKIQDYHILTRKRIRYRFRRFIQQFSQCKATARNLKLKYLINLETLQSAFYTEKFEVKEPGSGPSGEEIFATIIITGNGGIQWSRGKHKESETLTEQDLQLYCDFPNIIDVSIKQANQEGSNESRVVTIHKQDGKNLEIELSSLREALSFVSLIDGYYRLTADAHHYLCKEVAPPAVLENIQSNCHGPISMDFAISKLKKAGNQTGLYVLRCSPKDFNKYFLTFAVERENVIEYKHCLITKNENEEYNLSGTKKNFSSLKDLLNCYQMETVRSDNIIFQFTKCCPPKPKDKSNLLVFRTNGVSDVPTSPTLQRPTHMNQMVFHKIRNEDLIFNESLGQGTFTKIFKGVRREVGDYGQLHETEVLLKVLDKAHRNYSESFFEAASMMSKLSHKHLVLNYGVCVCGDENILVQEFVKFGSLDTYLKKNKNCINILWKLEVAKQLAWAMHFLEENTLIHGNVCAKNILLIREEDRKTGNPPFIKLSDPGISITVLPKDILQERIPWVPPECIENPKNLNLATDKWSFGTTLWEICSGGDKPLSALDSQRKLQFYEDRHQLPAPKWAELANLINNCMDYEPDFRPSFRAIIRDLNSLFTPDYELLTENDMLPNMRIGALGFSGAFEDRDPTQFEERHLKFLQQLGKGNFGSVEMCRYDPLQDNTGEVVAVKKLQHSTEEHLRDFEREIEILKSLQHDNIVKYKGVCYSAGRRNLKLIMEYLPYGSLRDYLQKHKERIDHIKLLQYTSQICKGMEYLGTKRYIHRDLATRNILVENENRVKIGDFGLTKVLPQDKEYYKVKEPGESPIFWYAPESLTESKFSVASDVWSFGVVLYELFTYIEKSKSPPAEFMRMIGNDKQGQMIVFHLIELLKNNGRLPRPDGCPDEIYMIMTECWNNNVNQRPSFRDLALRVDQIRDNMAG

Row | Kd [µM] | SMILES
1 | 0.205 | CN(Cc1ccc(Nc2nc(N)n(C(=O)c3c(F)cccc3F)n2)cc1)C(=S)Nc1ccc2c(c1)C(=O)OC21c2ccc(O)cc2Oc2cc(O)ccc21
2 | 57.3 | N#Cc1ccc(Nc2nc(N)cc(-n3ccc(CO)n3)n2)cc1
3 | 122 | N#Cc1ccc(Nc2nc(N)nc(-c3ccc(CO)o3)n2)cc1
4 | 106 | CS(=O)(=O)NCc1cn(-c2nc(N)nc(Nc3ccc(C#N)cc3)n2)nn1
5 | 7 | Cc1cc(C)n2c1C=C1C=CC(CCC(=O)NCCNC(=O)O[C@H]3[C@@H](O)[C@H](n4cnc5c(N)ncnc54)O[C@@H]3COP(=O)(O)OP(=O)(O)OP(=O)(O)O)=[N+]1[B-]2(F)F
6 | 0.227 | Nc1nc(Nc2ccc(C(=O)NCCCCCNC(=S)Nc3ccc4c(c3)C(=O)OC43c4ccc(O)cc4Oc4cc(O)ccc43)cc2)nn1C(=O)c1c(F)cccc1F
